Experimental data taken from patent publication US6924302B2, “Substituted triazole diamine derivatives as kinase inhibitors” (Ortho McNeil Pharmaceutical, Inc., priority 2000, dated 2005).
pIC50: −log10 of the molar value.

Legend:
[1] = biological target: T1, Glycogen Synthase Kinase-3 (beta isoform) (Oryctolagus cuniculus, UniProt G1T8E2); assay: Kinase Selectivity Assay Glycogen Synthase Kinase-3; type: biochemical, rabbit; conditions: Kinase Selectivity, Tables 2a-2k; read-out: GSK-3 IC50
T1 construct: purchased New England Biolabs 6040; host or cells: E. coli
T1 sequence (G1T8E2 1-432): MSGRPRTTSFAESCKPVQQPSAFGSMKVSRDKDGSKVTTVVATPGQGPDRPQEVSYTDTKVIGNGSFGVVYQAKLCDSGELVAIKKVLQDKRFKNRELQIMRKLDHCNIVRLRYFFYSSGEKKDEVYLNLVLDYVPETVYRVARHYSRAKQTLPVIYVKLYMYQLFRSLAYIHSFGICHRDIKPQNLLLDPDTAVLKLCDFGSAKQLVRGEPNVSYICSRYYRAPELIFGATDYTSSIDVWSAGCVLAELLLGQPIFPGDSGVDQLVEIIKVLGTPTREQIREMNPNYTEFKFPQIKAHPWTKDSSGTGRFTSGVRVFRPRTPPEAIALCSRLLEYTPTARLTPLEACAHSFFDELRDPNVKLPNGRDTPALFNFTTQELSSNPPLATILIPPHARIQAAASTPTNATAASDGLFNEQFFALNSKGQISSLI
Summary of the method: (§1)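 Inhibition was measured as reduced ^33P-γ-ATP labelling of a biotinylated peptide substrate immobilized on streptavidin plates after one hour at 30° C.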

[2] = biological target: T2, PDGF-R (platelet derived growth factor receptor) beta subunit kinase domain (Homo sapiens, UniProt P09619); assay: Kinase Selectivity Assay PDGF-R; type: biochemical; conditions: Kinase Selectivity, Tables 2a-2k; read-out: PDGF-R kinase IC50
T2 construct: nucleotides 1874-3507 of the human PDGF-R beta subunit kinase domain; polyhistidine (N)
T2 sequence (P09619 564-1106): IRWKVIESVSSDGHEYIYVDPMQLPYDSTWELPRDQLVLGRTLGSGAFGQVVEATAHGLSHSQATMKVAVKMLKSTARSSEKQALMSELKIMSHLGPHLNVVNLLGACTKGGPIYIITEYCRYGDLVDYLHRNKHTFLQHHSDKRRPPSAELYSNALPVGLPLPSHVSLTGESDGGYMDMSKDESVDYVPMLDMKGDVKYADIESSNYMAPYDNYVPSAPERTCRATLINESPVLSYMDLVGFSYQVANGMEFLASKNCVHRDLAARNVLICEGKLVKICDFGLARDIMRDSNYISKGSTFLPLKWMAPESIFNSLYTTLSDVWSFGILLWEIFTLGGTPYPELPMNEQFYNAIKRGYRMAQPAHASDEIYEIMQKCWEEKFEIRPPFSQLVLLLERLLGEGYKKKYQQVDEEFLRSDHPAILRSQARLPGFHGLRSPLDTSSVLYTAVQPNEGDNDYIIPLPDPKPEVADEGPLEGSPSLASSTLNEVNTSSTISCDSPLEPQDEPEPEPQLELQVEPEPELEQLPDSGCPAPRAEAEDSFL
Summary of the method: as §1

[3] = tested on: HCT-116 colon carcinoma; assay: Inhibition of Cell Proliferation (14C-thymidine incorporation), HCT-116; type: cell-based; conditions: Homo sapiens, HCT-116 cell line
Summary of the method: (§2)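 After seeding at 3000-8000 cells per well and a 24 h rest, compound is added and cells incubate 24 h; radiolabelled thymidine (0.2 uCi/well) then goes in for another 24 h. Washed wells are counted for incorporated 14C, relative to DMSO-only wells.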

[4] = biological target: Insulin Receptor Kinase (Homo sapiens, UniProt P06213); assay: Kinase Selectivity Assay Insulin Receptor Kinase; type: biochemical; conditions: Kinase Selectivity, Tables 2a-2k; read-out: Insulin R Kinase IC50
Sequence of Insulin Receptor Kinase (P06213 980-1352): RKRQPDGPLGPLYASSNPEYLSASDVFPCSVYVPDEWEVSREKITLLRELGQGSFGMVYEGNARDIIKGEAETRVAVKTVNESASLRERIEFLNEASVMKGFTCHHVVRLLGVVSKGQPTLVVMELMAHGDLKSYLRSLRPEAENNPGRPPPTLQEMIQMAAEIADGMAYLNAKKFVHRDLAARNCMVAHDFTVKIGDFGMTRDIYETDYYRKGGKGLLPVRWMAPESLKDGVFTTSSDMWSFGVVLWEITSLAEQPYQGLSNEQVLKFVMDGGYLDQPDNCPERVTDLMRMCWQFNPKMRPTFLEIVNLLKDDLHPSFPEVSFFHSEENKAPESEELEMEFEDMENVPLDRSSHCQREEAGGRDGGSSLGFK
Summary of the method: as §1

[5] = tested on: HeLa cervical adenocarcinoma; assay: Inhibition of Cell Proliferation (14C-thymidine incorporation), HeLa; type: cell-based; conditions: Homo sapiens, HeLa cell line
Summary of the method: as §2

[6] = biological target: T3, Calmodulin Kinase (calmodulin-dependent protein kinase 2) (Rattus norvegicus, UniProt P11275); assay: Kinase Selectivity Assay Calmodulin Kinase; type: biochemical; conditions: Kinase Selectivity, Tables 2a-2k; read-out: Calmodulin Kinase 2 IC50
T3 construct: a truncated version of the alpha subunit of the rat protein; purchased New England Biolabs 6060; host or cells: insect cells
Summary of the method: as §1

[7] = biological target: T4, Casein Kinase 2 (alpha and beta subunits) (Homo sapiens, UniProt P68400); assay: Kinase Selectivity Assay Casein Kinase 2; type: biochemical; conditions: Kinase Selectivity, Tables 2a-2k; read-out: Caseine Kinase 2 IC50
T4 construct: purchased New England Biolabs 6010; host or cells: E. coli
T4 sequence (P68400 whole entry): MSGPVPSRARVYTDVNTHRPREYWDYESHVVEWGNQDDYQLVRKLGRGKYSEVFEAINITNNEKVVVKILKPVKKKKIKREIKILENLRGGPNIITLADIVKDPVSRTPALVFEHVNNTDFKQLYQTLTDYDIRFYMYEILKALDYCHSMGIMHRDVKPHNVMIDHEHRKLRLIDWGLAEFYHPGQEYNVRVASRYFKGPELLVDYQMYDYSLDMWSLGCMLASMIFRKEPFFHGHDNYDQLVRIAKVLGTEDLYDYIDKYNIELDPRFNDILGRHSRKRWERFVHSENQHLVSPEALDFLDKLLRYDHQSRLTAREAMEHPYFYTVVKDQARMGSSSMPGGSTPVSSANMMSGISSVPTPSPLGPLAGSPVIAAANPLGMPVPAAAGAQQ
T4 sequence (P67870 whole entry partner): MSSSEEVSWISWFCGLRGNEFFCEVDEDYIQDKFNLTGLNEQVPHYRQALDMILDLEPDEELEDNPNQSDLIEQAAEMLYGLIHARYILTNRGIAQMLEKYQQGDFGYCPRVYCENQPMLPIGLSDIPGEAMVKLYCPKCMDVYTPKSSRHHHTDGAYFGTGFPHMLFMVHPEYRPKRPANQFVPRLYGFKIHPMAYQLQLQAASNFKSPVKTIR
Summary of the method: as §1

[8] = biological target: T5, MAP Kinase (ERK-2 isoform) (Rattus norvegicus, UniProt P63086); assay: Kinase Selectivity Assay MAP Kinase (ERK-2); type: biochemical; conditions: Kinase Selectivity, Tables 2a-2k; read-out: ERK 2 IC50
T5 construct: polyhistidine (N); host or cells: E. coli
T5 sequence (P63086 whole entry, canonical isoform): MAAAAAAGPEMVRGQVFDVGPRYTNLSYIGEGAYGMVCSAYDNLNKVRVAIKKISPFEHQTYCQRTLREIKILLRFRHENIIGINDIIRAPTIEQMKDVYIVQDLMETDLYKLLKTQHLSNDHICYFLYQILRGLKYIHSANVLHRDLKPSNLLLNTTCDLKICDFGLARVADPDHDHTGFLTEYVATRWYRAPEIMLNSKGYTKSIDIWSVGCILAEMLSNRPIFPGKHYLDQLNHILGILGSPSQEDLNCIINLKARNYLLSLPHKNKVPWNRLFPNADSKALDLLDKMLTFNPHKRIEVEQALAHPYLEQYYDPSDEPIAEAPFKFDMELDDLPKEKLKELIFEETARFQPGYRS
Summary of the method: as §1

Row | SMILES | pIC50 [1] | pIC50 [2] | IC50 [3] [nM] | pIC50 [4] | IC50 [5] [nM] | pIC50 [6] | pIC50 [7] | pIC50 [8]
1 | Nc1nc(Nc2ccc(S(=O)(=O)Nc3ccccn3)cc2)nn1C(=O)c1c(F)cccc1F [Cpd 118, 4-[[5-amino-1-(2,6-difluorobenzoyl)-1H-1,2,4-triazol-3-yl]amino]-N-(2-pyridinyl)-benzenesulfonamide] | 6.80 | < 4.00 | 1170 | < 4.00 | 1940 | < 4.00 | < 4.00 | < 4.00
2 | Cc1cc(C)c(C(=O)n2nc(Nc3ccc(S(=O)(=O)Nc4ccccn4)cc3)nc2N)s1 [Cpd 120] | 7.74 | 6.09 | 334 | < 4.00 | 978 | < 4.00 | < 4.00 | < 4.00
3 | Cc1ccc(F)c(C(=O)n2nc(N)nc2Nc2ccc(S(N)(=O)=O)cc2)c1F [Cpd 123, 4-[[3-amino-1-(2,6-difluoro-3-methylbenzoyl)-1H-1,2,4-triazol-5-yl]amino]-benzenesulfonamide] | 5.52 | < 4.00 | 4140 | < 4.00 | 28500 | < 4.00 | < 4.00 | < 4.00
